Data taken from patent US20220197161A1, “ELECTROPHOTOGRAPHIC PHOTOCONDUCTOR, METHOD OF MANUFACTURING THE SAME, AND ELECTROPHOTOGRAPHIC EQUIPMENT” (FUJI ELECTRIC CO., LTD., priority 2020, published 2022).

Assay: solubility SETM (THF): mass of tetrahydrofuran required to dissolve 1 g of the azoquinone derivative
Assay type: physicochemical
Conditions: mass (g) of tetrahydrofuran required to dissolve 1 g of the azoquinone derivative
Description: The solubility SETM (THF) of the azoquinone derivative having a structure represented by the general formula (ET1) (the mass (g) of tetrahydrofuran required to dissolve 1 g of the azoquinone derivative) preferably satisfies the following inequality:
For the azoquinone derivative having a structure represented by the general formula (ET1) in a preferred embodiment, the solubility SETM (THF), as represented by the mass (g) of tetrahydrofuran required to dissolve 1 g of the electron transport materials), of the electron transport materials also satisfies the following inequality:
The solubility SETM (THF) of the azoquinone derivative, as represented by the mass (g) of tetrahydrofuran required to dissolve 1 g of the azoquinone derivative having a structure represented by the above structural formula (ET1-4)), was 1 (g).

| solubility SETM (THF) [g] | SMILES |
| --- | --- |
| 1 | CC(C)(C)C1=CC(=CN=Nc2cc(Cl)ccc2Cl)C=C(C(C)(C)C)C1=O [ET1-4] |
| 15 | CC(C)(C)C1=CC(=CN=Nc2ccc(F)cc2F)C=C(C(C)(C)C)C1=O [ET-2] |
| 1 | CC(C)(C)C1=CC(=CN=Nc2c(Cl)cc(Cl)cc2Cl)C=C(C(C)(C)C)C1=O [ET1-5] |
| 22 | CC(C)(C)C1=CC(=CN=Nc2c(F)c(F)c(F)c(F)c2F)C=C(C(C)(C)C)C1=O [ET-3] |
| ≤ 1 | CC(C)(C)C1=CC(=CN=Nc2c(Cl)cccc2Cl)C=C(C(C)(C)C)C1=O [ET1-3] |
| 3 | CC(C)(C)C1=CC(=CN=Nc2ccc(Cl)cc2)C=C(C(C)(C)C)C1=O [ET-1] |
